From ChEMBL document CHEMBL5108005, “Rational design of a trypanocidal peptide derived from Dinoponera quadriceps venom” (Eur J Med Chem, 2022)
Active and inactive are the calls of the source. No cut-off for these calls is given here.

Legend:
[1] = Cytotoxicity against monkey LLC-MK2 cells assessed as reduction in cell viability incubated for 24 hrs by MTT assay; type: toxicity, cell-based; conditions: Macaca mulatta (monkey)
Trypanosoma cruzi [2] = experiment: Antitrypanosomal activity against Trypanosoma cruzi Y trypomastigotes infected in monkey LLC-MK2 cells assessed as reduction in cell death inducing capability incubated for 24 hrs by hemocytometer chamber based analysis; type: functional, organism-based; conditions: LLC-MK2, 24 h
[3] = Selectivity index, ratio of EC50 for Cytotoxicity against monkey LLC-MK2 cells to EC50 for antitrypanosomal activity against Trypanosoma cruzi Y trypomastigotes infected in monkey LLC-MK2 cells; type: toxicity, cell-based; conditions: read-out: Ratio EC50
Trypanosoma cruzi [4] = experiment: Antitrypanosomal activity against Trypanosoma cruzi Y epimastigotes assessed as parasite growth inhibition measured after 24 hrs by hemocytometer chamber based analysis; type: functional, organism-based
Trypanosoma cruzi [5] = experiment: Antitrypanosomal activity against Trypanosoma cruzi Y epimastigotes assessed as parasite growth inhibition measured after 48 hrs by hemocytometer chamber based analysis; type: functional, organism-based
Trypanosoma cruzi [6] = experiment: Antitrypanosomal activity against Trypanosoma cruzi Y epimastigotes assessed as parasite growth inhibition measured after 72 hrs by hemocytometer chamber based analysis; type: functional, organism-based
Trypanosoma cruzi [7] = experiment: (§1) Antitrypanosomal activity against Trypanosoma cruzi Y amastigotes infected in monkey LLC-MK2 cells assessed as reduction in reduction in amastigotes per 100 cells measured after 24 hrs by Giemsa staining based analysis; type: functional, organism-based; conditions: LLC-MK2, 24 h
[8] = as §1, with “Selectivity index, ratio of EC50 for Cytotoxicity against monkey LLC-MK2 cells to EC50 for antitrypanosomal” for “Antitrypanosomal”; type: toxicity, cell-based; conditions: read-out: Ratio EC50
Trypanosoma cruzi [9] = experiment: (§2) Antitrypanosomal activity against Trypanosoma cruzi Y amastigotes infected in monkey LLC-MK2 cells assessed as reduction in reduction in amastigotes per 100 cells measured after 48 hrs by Giemsa staining based analysis; type: functional, organism-based; conditions: LLC-MK2, 48 h
[10] = Cytotoxicity against monkey LLC-MK2 cells assessed as reduction in cell viability incubated for 48 hrs by MTT assay; type: toxicity, cell-based; conditions: Macaca mulatta (monkey)
[11] = as §2, with “Selectivity index, ratio of EC50 for Cytotoxicity against monkey LLC-MK2 cells to EC50 for antitrypanosomal” for “Antitrypanosomal”; type: toxicity, cell-based; conditions: read-out: Ratio EC50
Trypanosoma cruzi [12] = experiment: Induction of cell death in Trypanosoma cruzi Y epimastigotes assessed as live cells at 13.5 uM incubated for 24 hrs by Annexin V/7-AAD staining based flow cytometric analysis (reference value: 98.6 %); type: functional
Trypanosoma cruzi [13] = experiment: Induction of cell death in Trypanosoma cruzi Y epimastigotes assessed as early apoptotic cells at 13.5 uM incubated for 24 hrs by Annexin V/7-AAD staining based flow cytometric analysis (reference value: 0.11 %); type: functional
Trypanosoma cruzi [14] = experiment: Induction of cell death in Trypanosoma cruzi Y epimastigotes assessed as late apoptotic cells at 13.5 uM incubated for 24 hrs by Annexin V/7-AAD staining based flow cytometric analysis (reference value: 0.12 %); type: functional
Trypanosoma cruzi [15] = experiment: Induction of cell death in Trypanosoma cruzi Y epimastigotes assessed as dead cells at 13.5 uM incubated for 24 hrs by Annexin V/7-AAD staining based flow cytometric analysis (reference value: 1.13 %); type: functional
Trypanosoma cruzi [16] = experiment: Induction of oxidative stress in Trypanosoma cruzi Y epimastigotes assessed as increase in ROS formation at 13.5 uM incubated for 24 hrs by DCFH-DA staining based analysis relative to control; type: functional
Trypanosoma cruzi [17] = experiment: Induction of membrane damage in Trypanosoma cruzi Y epimastigotes at EC50 measured after 12 hrs by SEM analysis; type: organism-based; conditions: Cell membrane
Trypanosoma cruzi [18] = experiment: Induction of cell death in Trypanosoma cruzi Y epimastigotes assessed as live cells at 7.2 uM incubated for 24 hrs by Annexin V/7-AAD staining based flow cytometric analysis (reference value: 98.6 %); type: functional
Trypanosoma cruzi [19] = experiment: Induction of cell death in Trypanosoma cruzi Y epimastigotes assessed as early apoptotic cells at 7.2 uM incubated for 24 hrs by Annexin V/7-AAD staining based flow cytometric analysis (reference value: 0.11 %); type: functional
Trypanosoma cruzi [20] = experiment: Induction of cell death in Trypanosoma cruzi Y epimastigotes assessed as late apoptotic cells at 7.2 uM incubated for 24 hrs by Annexin V/7-AAD staining based flow cytometric analysis (reference value: 0.12 %); type: functional
Trypanosoma cruzi [21] = experiment: Induction of cell death in Trypanosoma cruzi Y epimastigotes assessed as dead cells at 7.2 uM incubated for 24 hrs by Annexin V/7-AAD staining based flow cytometric analysis (reference value: 1.13 %); type: functional
Trypanosoma cruzi [22] = experiment: Induction of oxidative stress in Trypanosoma cruzi Y epimastigotes assessed as increase in ROS formation at 7.2 uM incubated for 24 hrs by DCFH-DA staining based analysis relative to control; type: functional
Trypanosoma cruzi [23] = experiment: Induction of mitochondrial membrane potential loss in Trypanosoma cruzi Y epimastigotes at 7.2 uM incubated for 24 hrs by Rhodamine 123 staining based flow cytometric analysis relative to control; type: functional
Trypanosoma cruzi [24] = experiment: Antitrypanosomal activity against Trypanosoma cruzi Y trypomastigotes infected in monkey LLC-MK2 cells assessed as reduction in cell death inducing capability incubated for 24 hrs by Neubauer chamber based analysis; type: functional, organism-based; conditions: LLC-MK2, 24 h
Trypanosoma cruzi [25] = experiment: Induction of cell death in Trypanosoma cruzi Y epimastigotes assessed as live cells at 125 uM incubated for 24 hrs by Annexin V/7-AAD staining based flow cytometric analysis (reference value: 98.6 %); type: functional
Trypanosoma cruzi [26] = experiment: Induction of cell death in Trypanosoma cruzi Y epimastigotes assessed as early apoptotic cells at 125 uM incubated for 24 hrs by Annexin V/7-AAD staining based flow cytometric analysis (reference value: 0.11 %); type: functional
Trypanosoma cruzi [27] = experiment: Induction of cell death in Trypanosoma cruzi Y epimastigotes assessed as late apoptotic cells at 125 uM incubated for 24 hrs by Annexin V/7-AAD staining based flow cytometric analysis (reference value: 0.12 %); type: functional
Trypanosoma cruzi [28] = experiment: Induction of cell death in Trypanosoma cruzi Y epimastigotes assessed as dead cells at 125 uM incubated for 24 hrs by Annexin V/7-AAD staining based flow cytometric analysis (reference value: 1.13 %); type: functional
Trypanosoma cruzi [29] = experiment: Induction of mitochondrial membrane potential loss in Trypanosoma cruzi Y epimastigotes at 125 uM incubated for 24 hrs by Rhodamine 123 staining based flow cytometric analysis relative to control; type: functional

| Molecule | EC50 at 24 h [1] [µM] | EC50 (Trypanosoma cruzi [2]) [µM] | selectivity ratio [3] | EC50 (Trypanosoma cruzi [4]) [µM] | EC50 (Trypanosoma cruzi [5]) [µM] | EC50 (Trypanosoma cruzi [6]) [µM] | also measured |
| --- | --- | --- | --- | --- | --- | --- | --- |
| H-FWGTLAKWALKAIPA-OH | > 50 | > 50 | < 50 |  |  |  |  |
| H-GTLAKWALKAIPA-OH | 189 | 8.76 | 21.6 |  |  |  |  |
| H-FWGTLAKWALRAIPA-OH | 38.5 | 1.54 | 24.7 |  |  |  |  |
| H-FWGRLAKWALKAIPA-OH | 9.6 | 1.09 | 8.8 |  |  |  |  |
| H-FWKTLAKWALKAIPA-OH | 73.4 | 0.86 | 85.3 | 13.5 | 16.8 | 19.3 | EC50 (Trypanosoma cruzi [7]): 0.91 µM; selectivity ratio at 24 h [8]: 80.7; EC50 (Trypanosoma cruzi [9]): 0.28 µM; EC50 at 48 h [10]: 43.9 µM; selectivity ratio at 48 h [11]: 157; Activity (Trypanosoma cruzi [12]): 74.1%; Activity (Trypanosoma cruzi [13]): 0.01%; Activity (Trypanosoma cruzi [14]): 1.04%; Activity (Trypanosoma cruzi [15]): 25.06%; Activity (Trypanosoma cruzi [16]): 58%; Activity (Trypanosoma cruzi [17]): Active |
| H-AIPAAMGMKQNK-OH | 43.1 | 0.59 | 72.9 | 7.2 | 9.7 | 8.7 | EC50 (Trypanosoma cruzi [7]): 1.32 µM; selectivity ratio at 24 h [8]: 32.6; EC50 (Trypanosoma cruzi [9]): 0.37 µM; EC50 at 48 h [10]: 35.8 µM; selectivity ratio at 48 h [11]: 96.7; Activity (Trypanosoma cruzi [18]): 85.36%; Activity (Trypanosoma cruzi [19]): 1.13%; Activity (Trypanosoma cruzi [20]): 1.09%; Activity (Trypanosoma cruzi [21]): 12.42%; Activity (Trypanosoma cruzi [22]): 40%; Activity (Trypanosoma cruzi [23]): 65%; Activity (Trypanosoma cruzi [17]): Active |
| H-FWGTLAKWARKAIPA-OH | 25.1 | 3.31 | 7.5 |  |  |  |  |
| H-FWGTLARWALKAIPA-OH | 55 | 5.1 | 10.8 |  |  |  |  |
| H-FWGKLAKWALKAIPA-OH | 60 | 1.03 | 58.2 |  |  |  |  |
| H-FWGTLAKWALKAIPAAMGMKQNK-OH | 25.7 |  | 80.3 | 4.7 | 3.6 | 2.4 | EC50 (Trypanosoma cruzi [24]): 0.32 µM |
| H-FWGTLAKWAKKAIPA-OH | 97 | 1.09 |  |  |  |  |  |
| O=C(Cn1ccnc1[N+](=O)[O-])NCc1ccccc1 [BENZNIDAZOLE] | 503 | 161 | 3.11 | 115 | 37.4 | 22.1 | Activity (Trypanosoma cruzi [25]): 93.22%; Activity (Trypanosoma cruzi [26]): 0.06%; Activity (Trypanosoma cruzi [27]): 1.01%; Activity (Trypanosoma cruzi [28]): 5.71%; Activity (Trypanosoma cruzi [29]): 70% |
| H-FWRTLAKWALKAIPA-OH | 13 | 0.69 | 18.8 |  |  |  |  |
